Measurements published in ChEMBL document CHEMBL1148602, “Synthesis and biological evaluation of new pentaphyrin macrocycles for photodynamic therapy” (J Med Chem, 2006).
Converted amounts (≈) assume the structure as drawn. The source made the active and inactive calls. The rule behind the calls is not given here.

Columns and labels:
Assay type in all cases: functional, cell-based
[1] = test system: K562; test: Cytotoxicity against human chronic myelogenous leukemia K562 cell line without light irradiation by MTT assay at 3-12 ug/ml
[2] = test system: IMR-90; test: Cytotoxicity against human transformed fibroblast IMR90 E1A cell line without light irradiation by MTT assay at 3-12 ug/ml
[3] = test system: K562; test: Cytotoxicity against human chronic myelogenous leukemia K562 cell line irradiated with white light at the fluence of 15 J/cm2; details: K562, light or radiation study
[4] = test system: IMR-90; test: Cytotoxicity against human transformed fibroblast IMR90 E1A cell line irradiated with white light at the fluence of 15 J/cm2; details: IMR-90, light or radiation study
[5] = test system: PANC-1; test: Cytotoxicity against human pancreatic adenocarcinomas Panc1 cell line irradiated with white light at the fluence of 15 J/cm2; details: PANC-1, light or radiation study
[6] = test system: HeLa; test: Cytotoxicity against human cervix adenocarcinomas HeLa cell line irradiated with white light at the fluence of 15 J/cm2; details: light or radiation study
[7] = test system: K562; test: Cytotoxicity against human chronic myelogenous leukemia K562 cell line irradiated with white light at the fluence of 30 J/cm2; details: K562, light or radiation study
[8] = test system: IMR-90; test: Cytotoxicity against human transformed fibroblast IMR90 E1A cell line irradiated with white light at the fluence of 30 J/cm2; details: IMR-90, light or radiation study
[9] = test system: PANC-1; test: Cytotoxicity against human pancreatic adenocarcinomas Panc1 cell line irradiated with white light at the fluence of 30 J/cm2; details: PANC-1, light or radiation study
[10] = test system: HeLa; test: Cytotoxicity against human cervix adenocarcinomas HeLa cell line irradiated with white light at the fluence of 30 J/cm2; details: light or radiation study
[11] = test system: IMR-90; test: Effect on apoptotic fragmentation in IMR90 E1A cells at 3 ug/ml and irradiation at 8 mW/cm2 for 60 min; details: Homo sapiens
[12] = test system: K562; test: Effect on apoptotic fragmentation in K562 cells at 3 ug/ml and irradiation at 8 mW/cm2 for 60 min; details: Homo sapiens
[13] = test system: HeLa; test: Internalization in cytoplasm in HeLa cells at 3 ug/ml for 24 hr by confocal microscopy after propidium iodide staining; details: Homo sapiens
[14] = test system: K562; test: Activation of Caspase 3 and 7 in K562 cells at 3 ug/ml and irradiation of 15 J/cm2 for 8 hrs; details: Homo sapiens
[15] = test system: IMR90 EIA; test: Activation of Caspase 3 and 7 in IMR90 EIA cells at 3 ug/ml and irradiation of 15 J/cm2 for 8 hrs; details: Homo sapiens

Compound	Activity [1]	Activity [2]	IC50 [3]	IC50 [4]	IC50 [5]	IC50 [6]	IC50 [7]	IC50 [8]	IC50 [9]	IC50 [10]	Activity [11]	Activity [12]	Activity [13]	Activity [14]	Activity [15]
CCC1=C(C)C2=NC/1=C\c1[nH]c(c(CC)c1CC)/C=c1\[nH]/c(c(C)c1CC)=C\c1ccc([nH]1)/C(c1ccccc1)=c1/cc/c([nH]1)=C/2	Toxic	Toxic	3.6 µg/mL (≈ 5.94 µM)	4.2 µg/mL (≈ 6.93 µM)	9.8 µg/mL (≈ 16.2 µM)	5.8 µg/mL (≈ 9.57 µM)	2.9 µg/mL (≈ 4.79 µM)	3.2 µg/mL (≈ 5.28 µM)	4.6 µg/mL (≈ 7.59 µM)	3.8 µg/mL (≈ 6.27 µM)	Active	Active	Active	Active	Active
CCC1=C(C)C2=NC/1=C\c1[nH]c(c(CC)c1CC)/C=c1\[nH]/c(c(C)c1CC)=C\C1=NC(C=C1)/C(c1ccccc1)=c1/cc/c([nH]1)=C/2 (stereo not given)	Toxic	Toxic	2 µg/mL (≈ 3.3 µM)	4 µg/mL (≈ 6.6 µM)	9.7 µg/mL (≈ 16 µM)	4.8 µg/mL (≈ 7.92 µM)	1.5 µg/mL (≈ 2.48 µM)	2.3 µg/mL (≈ 3.8 µM)	3.9 µg/mL (≈ 6.44 µM)	2.6 µg/mL (≈ 4.29 µM)	Active	Active	Active	Active	Active
